Where a SMILES comes first, the peptide text is derived from it. The star is where a group is joined. Cbz = O=C(OCc1ccccc1)*
Legend:
Type in all cases: cell-based
human iPSC-neurons [1] = test: Detection of protein aggregates on neuronal microtubules; conditions: 4° C. for 4 h, pre-incubation
Experimental: After treatments, cultured neurons were fixed with 4% paraformaldehyde for 10 minutes and then permeabilized and washed with 0.1% Triton X-100 in phosphate buffered saline. Protein aggregates were visualized by a dye that intercalates into the denatured and aggregated proteins and becomes fluorescent (Proteostat aggresome detection kit, Enzo, Farmingdale, N.Y.; see Table 2) (Shen, 2011). For accumulation of protein aggregates on the neuronal microtubules, cells were stained with TUBB3 antibody and the protein aggregate dye, and images (188.94 μm×188.94 μm) were taken. In each image, the number of protein aggregates residing on the microtubules was counted and divided by the total length of the TUBB3+ microtubule paths.

human iPSC-neurons [2] = test: Evaluation of neuronal microtubule stability in response to cold (tubulin immunofluorescence, TUBB3+ microtubule tracing)
Experimental: The temperature-dependent experiments in this study were performed at ambient CO2 concentration, which required the use of hibernate-medium (Table 2) to maintain the physiological pH. Experiments were conducted by first incubating cultured neurons (human iPSC-derived, GS iPSC-derived, GS primary, or rat primary cultures) in hibernate-medium for 30 min at room temperature. During this time (pre-incubation), drug treatments (see Other Reagents, Table 1) were introduced to test cold resistance and microtubule stability. The cell culture dishes were then kept in an ambient 37° C. incubator, or in a 4° C. refrigerator. […] The pH of hibernate-medium was stable and maintained the pH between 7.0 and 7.4 even after 16-h incubation at 4° C.
Cultured neurons or rat retinal explants with or without treatments were fixed with 4% paraformaldehyde, permeabilized and washed with 0.1% Triton X-100 in phosphate buffered saline, and stained by antibodies against TUBB3. TUBB3+ microtubule paths in images of 188.94×188.94 μm^2 from human iPSC-derived neuronal cultures and images of 67.48×67.48 μm^2 from rat whole-mount retinas were traced with the ‘Simple Neurite Tracer’ plugin in ImageJ.

[3] = tested on: rat retinal ganglion cells (RGCs); test: Multielectrode array (MEA) recordings of RGC activity in cold-exposed rat retina explants; conditions: 4° C. for 4 h, Taxol 10 μM
Experimental: All experiments were carried out under dim red light. Rat retina explants were removed and cut into smaller pieces in hibernate-medium, and divided into different treatment groups for pre-incubation with drugs promoting microtubule stability or a DMSO vehicle control at room temperature for 30 minutes. The cold-exposed groups were incubated in the refrigerator, while the fresh control samples were incubated on the bench in dark at room temperature. […] After 4- or 24-hour incubation, the cold-exposed retinal explants were placed on the bench for 10-15 minutes, and washed twice with fresh hibernate-medium. Retinal explants from all groups were then transferred to oxygenated (95% O2/5% CO2) bicarbonate-buffered AMES medium at room temperature. The sclera and RPE were removed prior to flat mounting the neural retina with the ganglion cell (RGC)-side facing down onto the MEA.
During MEA recording, the neural retinas were perfused with 95% O2/5% CO2-balanced AMES perfusion at 37° C. to measure the spontaneous firing activity of the rat RGCs over the course of 15 minutes. […] For MEA data processing and analyses, the firing spikes of RGCs were first filtered and recorded in MC Rack with a high-pass filter set at 200 Hz, a low-pass filter set at 3000 Hz, and the automatic standard deviation for spike detection threshold was set at −6. […]

human iPSC-neurons [4] = test: Live cell imaging of lysosomes using Magic Red and DND-26 (lysosomal membrane permeabilization, LMP); conditions: 4-h at 4° C.
Experimental: GS and Human iPSC-derived neuronal cultures were prepared in duplicate and incubated with hibernate-medium containing Magic Red (1:1000; ImmunoChemistry Technologies, Bloomington, Minn.) at 37° C. for 25 min, followed by the addition of LysoTracker Green DND-26 (50 nM; Thermo Fisher, Waltham, Mass.; see Table 1) for 5 min. The dye-containing medium was then replaced with fresh hibernate-medium, and one group of cultures was incubated at 4° C. for 1, 4 or 16 h, while the other group remained at 37° C. serving as normal controls. The cold-exposed group was subjected to confocal imaging at various temperatures (10° C., room temperature, or 37° C.), while the control group was imaged at either room temperature or 37° C. […] Magic Red becomes fluorescent after being cleaved by the lysosomal protease cathepsin B, while DND-26 is an acidotropic probe that accumulates in the acidic lysosomal vesicles. When LMP occurs, Magic Red and DND-26 signals become diffused within the cytoplasm of the affected cells. It was determined that cells have LMP if they contain a single Magic Red-stained particle of diameter >5 μm, which is about the size of the neuronal cell nucleus.

## CC(C)C[C@@H](C=O)NC(=O)[C@H](CC(C)C)NC(=O)[C@H](CC(C)C)NC(=O)OCc1ccccc1 [MG-132] (Cbz-Leu-Leu-Leu-aldehyde)
Human iPSC-neurons [1]
  protein aggregates along microtubule processes: did not show any further increase in aggregation

## CCOC(=O)c1ccc(N2NC(=O)/C(=C/c3ccc([N+](=O)[O-])o3)C2=O)cc1 [PYR-41]
Human iPSC-neurons [2]; human iPSC-neurons, 4-h incubation at 4° C.
  microtubule morphology after pre-treatment with ubiquitination inhibitor: did not improve microtubule morphology

## CC(=O)O[C@H]1C(=O)[C@@]2(C)[C@H]([C@H](OC(=O)c3ccccc3)[C@]3(O)C[C@H](OC(=O)[C@H](O)[C@@H](NC(=O)c4ccccc4)c4ccccc4)C(C)=C1C3(C)C)[C@]1(OC(C)=O)CO[C@@H]1C[C@@H]2O [Taxol]
Human iPSC-neurons [2]; human iPSC-neurons at 4° C., 10 μM (FIG. 6B)
  preservation of microtubules in cold: preserved microtubules in cold
Human iPSC-neurons [2]; human iPSC-neurons, 16-h cold exposure, 0.1 μM
  protection of neuronal microtubules, low dose: did not protect
[3]
  spontaneous RGC activity / firing rate distributions (MEA): did not preserve RGC activity

## O=C1O[C@H]([C@@H](O)CO)C(O)=C1O [vitamin C, ascorbic acid]
Human iPSC-neurons [4]
  LMP (number of cells containing diffuse Magic Red): alleviated LMP

— patent publication US11547708B2, “Compositions and methods to protect mammalian tissue against cold and other metabolic stresses” (THE UNITED STATES OF AMERICA, AS REPRESENTED BY THE …, priority 2017, dated 2023)
